Reference: patent US8648176B2, “Engineered proteins with high affinity for DOTA chelates” (Massachusetts Institute of Technology, priority 2009, dated 2014)
“And” between values parts separate entries of the source, which are not always exact repeats. Equal values may be shown once.

Key:
[1] = MIRD dosimetry estimate from PRIT mouse biodistribution; format: in vivo; conditions: 70 kg man
Experimental: Dosimetry. Radiation doses absorbed by normal tissues other than the red marrow were calculated according to the MIRD scheme. Percent injected activity in tumor, kidneys, liver, blood, and whole-body were calculated from activity measurements. The activity at time 0 was assumed to be 4% ID/g in the kidney and liver, 50% ID/g in the blood, 0% ID/g in the tumor and 100% in the whole-body. Isotope decay-adjusted activity was integrated over time, with a conservative assumption that the 48 h organ % ID remained constant thereafter. S values for ^90Y and ^177Lu were used to calculate dosimetry estimates in an adult male reference (Stabin and Siegel, Health Phys. 85:294-310, 2003). The red marrow dose was calculated as described (Wessels et al., J. Nucl. Med. 45:1725-1733, 2004) from blood activity measurements. […] Tumor doses were calculated from self-dose only using S-factors for a unit density sphere of size 500 g (the average LS174T tumor size scaled by 2000).
From the PRIT organ biodistribution data, the radiation dose to the kidney, liver, red marrow, and antigen-positive tumor was estimated for a 70 kg person for ^90Y and ^177Lu. […] The estimated doses to the kidney, liver, and red marrow were calculated from both the self-dose and cross-dose, wherein the whole-body activity was used to determine the cross-dose. The estimated dose to the tumor was determined from self-dose only. […]

[2] = system: CEA-positive (LS174T) tumor; test: Three-step PRIT (bsAb, dextran-DOTA-Y clearing agent, radiolabeled DOTA) biodistribution in xenograft mice; format: in vivo; conditions: for tumor uptake/activity, antigen-positive LS174T tumor: PRIT protocol with bsAb and dextran-DOTA-Y
Experimental: (§1) Radiolabeling. DOTA compounds were dissolved at 0.5 mM in ammonium acetate pH 5.6. 1-2 mCi ^177LuCl3 (PerkinElmer, Waltham, Mass.) or ^111InCl3 (Cardinal Health, Dublin, Ohio) were added to the metal chelate and incubated for 1-2 h at 85-95 C. The radiolabeled compounds were purified by RP-HPLC (Humblet et al., Contrast Media Mol. Imaging. 1:196-211, 2006; Misra et al., J. Nucl. Med. 48:1379-1389, 2007) with gamma detection on a 4.6×75 mm Symmetry C18 column using a linear gradient from 0% to 40% B over 15 minutes, at a flow rate of 1 mL/min, where A=10 mM TEAA and B=methanol. The purified compounds were dried under vacuum, resuspended in saline, and filter-sterilized.
(§2) Animal models. All animal handling was performed in accordance with BIDMC IACUC guidelines. Male NCRU-nu/nu mice were purchased from Taconic Farms (Germantown, N.Y.). For biodistribution and tumor uptake, 100-150 μCi ^177Lu- or ^111In-labeled hapten was injected intravenously into the mice. Blood was collected from the tail vein using micro-capillary tubes and counted on a model 1470 Wallac Wizard™ (Perkin Elmer, Wellesley, Mass.) 10-detector gamma counter. Mice were euthanized by intraperitoneal injection of pentobarbital followed by cervical dislocation, a method consistent with the recommendations of the Panel on Euthanasia of the American Veterinary Medical Association. Organs and tumors were resected, washed in PCS three times, weighed, and counted as described above.
We next tested a protocol involving all three reagents to determine the efficacy of our engineered PRIT system. […] After an additional 1 h, 100-150 μCi ^177Lu-DOTA was injected intravenously. At 4 h post-injection of radiolabeled DOTA, tumor uptake was 7.44+/−0.41% ID/g in the antigen-positive tumor, 84-fold higher than the tumor uptake observed for ^177Lu-DOTA alone. Activity was also higher in non-tumor tissue due to binding of ^177Lu-DOTA to residual bsAb in the extravascular compartment. Tumor uptake in the antigen-negative tumor was 9.82+/−0.35% ID/g at 4 h, similar to the antigen-positive tumor due to nonspecific uptake from enhanced permeability and retention (EPR) of the bsAb. […] The LS174T tumor to blood ratio increased from 18+/−2 at 4 h to 380+/−90 at 24 h and was greater than 450 at 48 h. […] The LS174T tumor to kidney ratio increased from approximately 8 at 4 h to about 20 at 24 and 48 h. SPECT/CT images confirmed the quantitative biodistribution data with high PSECT signal in the CEA-positive tumors, lower signal in the CEA-negative tumor and no observable signal in non-tumor tissue.
The pretargeted protocol described above was used to analyze the effect of affinity on the tumor uptake of radiolabeled DOTA. […] The 24 h organ/tissue biodistribution was determined in tumor-bearing mice with each of the four radiolabeled DOTA compounds. […] The activity in the C6 antigen-negative tumor increased with affinity, presumably due to nonspecific uptake of bsAb. The activity in the non-tumor tissues is also higher for the higher affinity compounds due to the higher affinity binding to residual bsAb.

[3] = system: CEA-negative (C6) tumor; test: as above; format: in vivo; conditions: PRIT protocol
Experimental: as §1, §2
We next tested a protocol involving all three reagents to determine the efficacy of our engineered PRIT system. […] After an additional 1 h, 100-150 μCi ^177Lu-DOTA was injected intravenously. At 4 h post-injection of radiolabeled DOTA, tumor uptake was 7.44+/−0.41% ID/g in the antigen-positive tumor, 84-fold higher than the tumor uptake observed for ^177Lu-DOTA alone. […] SPECT/CT images confirmed the quantitative biodistribution data with high PSECT signal in the CEA-positive tumors, lower signal in the CEA-negative tumor and no observable signal in non-tumor tissue.

[4] = Organ uptake of DOTA-based compounds in normal CD1 mice; format: in vivo; conditions: 4 h p.i., compared to radiolabeled DOTA-biotin and DOTA-Bn
[5] = molecular target: DOTA-Bn-biotin-Y; test: KD by titration of yeast surface-displayed scFv, flow cytometry; format: binding; conditions: hapten DOTA-Bn-Biotin, metal Y, 37° C., mean ± SD
Experimental: Briefly, yeast expressing an scFv clone on their surface were grown, washed with PBSA and incubated with various concentrations of DOTA-Bn-biotin-metal long enough to allow for at least a 95% approach to equilibrium. Generally, 5×10^5 induced cells were used for each concentration point. When antigen concentrations less than 10 pM were assayed, the titration was performed with 2.5×10^4 induced and 7.5×10^5 non-induced cells to ensure antigen excess over the scFv without requiring impractically large volumes. The addition of non-induced cells aids pelleting during centrifugation (Hackel et al., J. Mol. Biol. 381:1238-1252, 2008). When antigen concentrations greater than 100 nM were used, non-specific antigen binding to the yeast surface was taken into account. Yeast expressing an irrelevant scFv on their surface were treated in the same manner as the yeast displaying the scFv of interest, and mean total phycoeryhthrein fluorescence (MFUtot) due to non-specific binding was measured by flow cytometry and averaged over three replicates. This value was subtracted from the MFUtot for the yeast of interest, and the data was fit by least-squares regression.

[6] = system: DOTA-Bn-biotin-Y; test: Dissociation kinetics, yeast surface-displayed scFv; format: binding
Experimental: Dissociation Kinetics. To determine the dissociation rate, koff, for DOTA-Bn-biotin complexes, cells were induced and washed as above, and 1×10^7 cells were incubated in 1 mL PBSA with 1 nM DOTA-Bn-biotin-metal for 1 h to reach saturation. Subsequently, the yeast were washed with 1 mL PBSA, resuspended in 1 mL PBSA with 1 μM (excess) non-biotinylated antigen as competitor and split into 100 μL aliquots. These aliquots were incubated at 37° C. for different lengths of time, then washed with cold PBSA and left on ice. All samples were simultaneously stained with streptavidin-phycoerythrein for 10-20 min and analyzed by flow cytometry. The data was fit to the following equation by least squares regression, varying MFUmin, MFUrange and koff: MFUtot=MFUmin+MFUrangee^−k^off^t For nonbiotinylated antigens, the procedure was identical except that initial saturation was with the nonbiotinylated antigen and DOTA-Bn-biotin-metal was used as competitor. The data followed the expression MFUtot=MFUmin+MFUrange(1−e^−k^off^t)

[7] = molecular target: DOTA-Ga; test: KD by competition with DOTA-Bn-biotin-Y, yeast surface-displayed scFv; format: binding; conditions: hapten DOTA, metal Ga; mean ± SD
Experimental: (§3) KD Measurements for DOTA-metal and DOTA-Bn-metal. To determine the KD for scFv binding to nonbiotinylated haptens, the above protocol was modified to a competition-based assay as follows. […] Incubation, staining, and flow cytometry analysis was the same as that for biotinylated antigen. MFUtot as a function of the concentration of the nonbiotinylated antigen ([Ag]), a normalization constant (MFUrange), the minimal total mean fluorescence (MFUmin), the KD for DOTA-Bn-biotin-Y (KD, biot), DOTA-Bn-biotin-Y concentration ([Agbiot]), and the KD for the antigen of interest (KD) follows this modified equation:
(§4) [formula] The data was fit by least squares regression as before, varying MFUmin, MFUrange and KD.

[8] = molecular target: DOTA-Bn-In; test: as above; format: binding; conditions: hapten DOTA-Bn, metal In; mean ± SD
Experimental: as §3, §4

[9] = molecular target: DOTA-Gd; test: as above; format: binding; conditions: hapten DOTA, metal Gd; mean ± SD
Experimental: as §3, §4

[10] = molecular target: DOTA-Lu; test: as above; format: binding; conditions: hapten DOTA, metal Lu; mean ± SD
Experimental: as §3, §4

[11] = molecular target: DOTA-Y; test: as above; format: binding; conditions: hapten DOTA, metal Y; mean ± SD
Experimental: as §3, §4

[12] = molecular target: DOTA-Bn-Ga; test: as above; format: binding; conditions: hapten DOTA-Bn, metal Ga; mean ± SD
Experimental: as §3, §4

[13] = molecular target: DOTA-In; test: as above; format: binding; conditions: hapten DOTA, metal In; mean ± SD
Experimental: as §3, §4

[14] = molecular target: DOTA-Bn-Lu; test: as above; format: binding; conditions: hapten DOTA-Bn, metal Lu; mean ± SD
Experimental: as §3, §4

[15] = molecular target: DOTA-Bn-Gd; test: as above; format: binding; conditions: hapten DOTA-Bn, metal Gd; mean ± SD
Experimental: as §3, §4

[16] = molecular target: DOTA-Bn-Y; test: as above; format: binding; conditions: hapten DOTA-Bn, metal Y; mean ± SD
Experimental: as §3, §4

O=C([O-])CN1CCN(CC(=O)[O-])CCN(CC(=O)[O-])CCN(CC(=O)[O-])CC1.[177Lu+3].[H+] [^177Lu-DOTA]
estimated dose to the tumor ([1]; at a red marrow dose of 1.5 Gy, estimated from mouse biodistribution, self-dose only): 156 Gy | dose-limiting organ ([1]; predicted from radiation dose estimates): red marrow | LS174T tumor to blood ratio ([2]; 4 h, PRIT protocol): 18+/−2 | LS174T tumor to kidney ratio ([2]; 4 h, PRIT protocol): approximately 8 | tumor uptake relative to hapten alone ([2]; 4 h, antigen-positive tumor, versus ^177Lu-DOTA alone): 84 fold | tumor uptake, antigen-positive tumor ([2]; 4 h post-injection of radiolabeled DOTA, 500 μg bsAb, 250 μg dextran-DOTA-Y 24 h later, hapten 1 h later): 7.44+/−0.41 % ID/g | tumor uptake/activity, antigen-positive LS174T tumor ([2]; 24 h): ~14 % ID/g and 14.3+/−1.8 % ID/g | tumor uptake relative to hapten of ~1 nM affinity ([2]; 24 hours, affinity ~100 pM versus ~1 nM): 8 fold | tumor uptake relative to hapten of ~10 nM affinity ([2]; 24 hours, affinity ~100 pM versus ~10 nM): 28 fold | blood activity ([2]; 48 h, PRIT protocol): not measurable above background | tumor uptake, antigen-negative tumor ([3]; 4 h): 9.82+/−0.35 % ID/g | tumor activity, antigen-negative tumor ([3]; 24 h): 4.23+/−0.54 % ID/g | tumor activity, antigen-negative tumor ([3]; 48 h): 2.89+/−2.28 % ID/g | liver and intestine uptake [4]: slightly lower

O=C([O-])CN1CCN(CC(=O)[O-])CCN(CC(=O)[O-])CCN(CC(=O)[O-])CC1.[111In+3] [^111In-DOTA]
LS174T tumor to kidney ratio ([2]; 24 h, PRIT protocol): 1.2+/−0.4 | tumor uptake/activity, antigen-positive LS174T tumor ([2]; 24 h): 0.5+/−0.1 % ID/g

B1: C8.2.5: high-affinity disulfide-stabilized DOTA-binding scFv affinity matured from 2D12.5; residues 1-244 are SEQ ID NO:12 (protein)
scFv: HVKLQESGPGLVQPSQSLSLTCTVSGFSLTDYGVHWVRQSPGKGLEWLGVIWSGGGTAYNTALISRLNIYRDNSKNQVFLEMNSLQAEDTAMYYCARRGSYPYNYFDAWGCGTTVTVSSGGGGSGGGGSGGGGSQAVVIQESALTTPPGETVTLTCGSSTGAVTASNYANWVQEKPDHCFTGLIGGHNNRPPGVPARFSGSLIGDKAALTIAGTQTEDEAIYFCALWYSDHWVIGGGTRLTVLGGSEQKLISEEDL
Kd [5]: 0.0082 ± 0.0019 nM | dissociation half-time [6]: over 5 hours | Kd [7]: 216 ± 26 nM | Kd [8]: 1.01 ± 0.04 nM | Kd [9]: 0.149 ± 0.006 nM | Kd [10]: 0.39 ± 0.014 nM | Kd [11]: 0.103 ± 0.035 nM | Kd [12]: 52 ± 12 nM | Kd [13]: 23.7 ± 3.7 nM | Kd [14]: 0.0108 ± 0.0025 nM | Kd [15]: 0.034 ± 0.0053 nM | Kd [16]: 0.0154 ± 0.002 nM

B2: 2D12.5ds: original 2D12.5 scFv with the addition of the intramolecular disulfide bond and removed glycosylation site (SEQ ID NO:2) (protein)
scFv: QVKLQESGPGLVQPSQSLSITCTVSGFSLTDYGVHWVRQSPGKGLEWLGVIWSGGGTAYTAAFISRLNIYKDNSKNQVFFEMNSLQAEDTAMYYCARRGSYPYNYFDVWGCGTTVTVSSGGGGSGGGGSGGGGSQAVVTQESALTTSPGETVTLTCRSSTGAVTTSNYANWVQEKPDHCFTGLIGGNNNRPPGVPARFSGSLIGDKAALTIAGTQTEDEAIYFCALWYSNHWVFGGGTRLTVLG
Kd [5]: 3.7 ± 3.6 nM | dissociation half-time [6]: 5.5 min
